Data: the NIST ThermoML archive (doi:10.1021/je060210c)
Numbers after ± are expanded uncertainties.

Conditions: 101.33 kPa, Liquid; for speed of sound: Sing-around technique in a fixed-path interferometer

mass density (283.15 K) [kg/m3] | speed of sound (283.15 K) [m/s] | mass density (298.15 K) [kg/m3] | speed of sound (298.15 K) [m/s] | mass density (313.15 K) [kg/m3] | speed of sound (313.15 K) [m/s] | SMILES
821.79 ± 0.92 | 1325.9 ± 1.3 | 810.83 ± 0.95 | 1274.1 ± 1.2 | 799.8 ± 0.98 | 1225.5 ± 1.2 | CCCCCO [pentan-1-ol]
816.77 ± 1.9 | 1286.7 ± 2.1 | 804.97 ± 1.9 | 1232.6 ± 2.1 | 792.42 ± 2 | 1168.1 ± 2.1 | CCCC(C)O (stereo not drawn) [pentan-2-ol]
879.07 ± 0.77 | 1354.3 ± 1.3 | 867.11 ± 0.8 | 1295.6 ± 1.3 | 854.87 ± 0.83 | 1236.3 ± 1.2 | C=C1CCC2CC1C2(C)C (stereo not drawn) [β-pinene]
